Measurements reported in patent US10935498B1, “Fluorescent probe for detecting nitroreductase and preparation method and use thereof in enzymatic reaction” (SOUTH CHINA UNIVERSITY OF TECHNOLOGY, priority 2018, dated 2021).

Columns and labels:
[1] = system: nitroreductase; assay: Fluorescent response of the probe to nitroreductase (NTR) in PBS buffer; assay type: biochemical; settings: probe 10 μM, excitation 500 nm
Procedure: 1.5 mg of the solid fluorescent compound, 3-(4-(2-(4′-(diphenylamino)-3-((4-nitrobenzyl)oxy)-[1,1′-biphenyl]-4-yl)vinyl)quinolin-1-ium-1-yl)propane-1-sulfonate (TAE-NQS, prepared in Example 1), was dissolved in 2 mL of DMSO, and prepared into a 1 mM stock solution of the fluorescent compound. Before the test, of the fluorescent compound was diluted with a phosphate buffer (10 mM, pH 7.4), and a solution system to be tested containing 1% DMSO was obtained (final concentration of the probe was 10 μM).
3 μL of the above-mentioned stock solution of the fluorescent compound was drawn, and a blank control sample and test samples were prepared with PBS buffer solution (10 mM, pH=7.4). […] The samples were incubated at 37° C. for 15 minutes, then the absorption spectra ranging from 350 nm to 700 nm were recorded, and the fluorescence spectra were measured under the excitation light of 500 nm. […]
When the concentration of NTR was 2 μg/mL and the concentration of the probe was 10 μM, the fluorescence intensity varied over time, shown as FIG. 7. […] By controlling the temperature to be 37° C. and the incubation time to be 5 minutes, the fluorescence spectra under the excitation wavelength of 500 nm for each test sample were recorded. […]

[2] = Solubility (stated property); assay type: physicochemical
[3] = Photostability (stated property); assay type: physicochemical
[4] = Toxicity (stated property)

For `O=[N+]([O-])c1ccc(COc2cc(-c3ccc(N(c4ccccc4)c4ccccc4)cc3)ccc2C=Cc2cc[n+](CCCS(=O)(=O)[O-])c3ccccc23)cc1` [TAE-NQS, 3-(4-(2-(4′-(diphenylamino)-3-((4-nitrobenzyl)oxy)-[1,1′-biphenyl]-4-yl)vinyl)quinolin-1-ium-1-yl)propane-1-sulfonate], the “time in which the enzymatic reaction was completed” value ([1]; NTR 0 μg/mL to 5 μg/mL, PBS pH 7.4, 37° C.) was no more than 30 min, the “fluorescence intensity compared with the blank sample” value ([1]; nitroreductase 2 μg/mL, NADH 100 μM, PBS 10 mM pH 7.4, 37° C., 15 minutes) was “changed significantly” and the “solubility in solvents such as DMSO and DMF” value ([2]; DMSO, DMF) was “easily soluble”. For the same compound, the solubility in water ([2]; water) was “slightly soluble”, the photostability [3] was “good” and the toxicity [4] was “non-toxic”.
